From PubChem BioAssay (NCI)
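Compound exposure: 48 hours, 5 concentrations, 96-well plates. GI50: concentration for 50% inhibition of growth. At the TGI there is no net growth.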

What was measured:
Assay in all cases: NCI tumour cell line growth inhibition, 48 h
786-0 renal = tested on: 786-0 renal
A498 renal = tested on: A498 renal
A549 NSCLC = tested on: A549 NSCLC
ACHN renal = tested on: ACHN renal
BT-549 breast = tested on: BT-549 breast
CAKI-1 renal = tested on: CAKI-1 renal
CCRF-CEM leukemia = tested on: CCRF-CEM leukemia
COLO 205 colon = tested on: COLO 205 colon
DU-145 prostate = tested on: DU-145 prostate
EKVX NSCLC = tested on: EKVX NSCLC
HCC-2998 colon = tested on: HCC-2998 colon
HCT-116 colon = tested on: HCT-116 colon
HCT-15 colon = tested on: HCT-15 colon
HL-60(TB) leukemia = tested on: HL-60(TB) leukemia
HOP-62 NSCLC = tested on: HOP-62 NSCLC
HOP-92 NSCLC = tested on: HOP-92 NSCLC
HS 578T breast = tested on: HS 578T breast
HT29 colon = tested on: HT29 colon
IGROV1 ovarian = tested on: IGROV1 ovarian
K-562 leukemia = tested on: K-562 leukemia
KM12 colon = tested on: KM12 colon
LOX IMVI melanoma = tested on: LOX IMVI melanoma
M14 melanoma = tested on: M14 melanoma
MALME-3M melanoma = tested on: MALME-3M melanoma
MCF7 breast = tested on: MCF7 breast
MDA-MB-231 breast = tested on: MDA-MB-231 breast
MDA-MB-435 = tested on: MDA-MB-435
MDA-MB-468 breast = tested on: MDA-MB-468 breast
MOLT-4 leukemia = tested on: MOLT-4 leukemia
NCI-H226 lung = tested on: NCI-H226 lung

Nc1nc2cc(-c3ccc4ncnc(NCc5ccccc5)c4c3)ccc2o1
GI50 (786-0 renal): 13 µM
TGI (786-0 renal): 26.3 µM
GI50 (A498 renal): 3.55 µM
TGI (A498 renal): 18.1 µM
GI50 (A549 NSCLC): 4.16 µM
TGI (A549 NSCLC): 29.4 µM
GI50 (ACHN renal): 5.27 µM
TGI (ACHN renal): 18.2 µM
GI50 (BT-549 breast): 4.31 µM
TGI (BT-549 breast): 16.7 µM
GI50 (CAKI-1 renal): 7.7 µM
TGI (CAKI-1 renal): 21 µM
GI50 (CCRF-CEM leukemia): 6.08 µM
TGI (CCRF-CEM leukemia): 30.2 µM
GI50 (COLO 205 colon): 14.4 µM
TGI (COLO 205 colon): 30 µM
GI50 (DU-145 prostate): 4.7 µM
TGI (DU-145 prostate): 20.5 µM
GI50 (EKVX NSCLC): 3.47 µM
TGI (EKVX NSCLC): 20.2 µM
GI50 (HCC-2998 colon): 9.11 µM
TGI (HCC-2998 colon): 23 µM
GI50 (HCT-116 colon): 3.89 µM
TGI (HCT-116 colon): 17.5 µM
GI50 (HCT-15 colon): 6.45 µM
TGI (HCT-15 colon): 27.3 µM
GI50 (HL-60(TB) leukemia): 10.4 µM
TGI (HL-60(TB) leukemia): 24 µM
GI50 (HOP-62 NSCLC): 10.7 µM
TGI (HOP-62 NSCLC): 34.3 µM
GI50 (HOP-92 NSCLC): 2.11 µM
TGI (HOP-92 NSCLC): 7.5 µM
GI50 (HS 578T breast): 2.41 µM
TGI (HS 578T breast): 7.52 µM
GI50 (HT29 colon): 7.45 µM
TGI (HT29 colon): 58.3 µM
GI50 (IGROV1 ovarian): 1.98 µM
TGI (IGROV1 ovarian): 5.5 µM
GI50 (K-562 leukemia): 11.2 µM
TGI (K-562 leukemia): 23.2 µM
GI50 (KM12 colon): 6.77 µM
TGI (KM12 colon): 25.6 µM
GI50 (LOX IMVI melanoma): 3.07 µM
TGI (LOX IMVI melanoma): 15.9 µM
GI50 (M14 melanoma): 12.4 µM
TGI (M14 melanoma): 35.6 µM
GI50 (MALME-3M melanoma): 3.2 µM
TGI (MALME-3M melanoma): 13.3 µM
GI50 (MCF7 breast): 2.47 µM
TGI (MCF7 breast): 11.1 µM
GI50 (MDA-MB-231 breast): 7.96 µM
TGI (MDA-MB-231 breast): 21.4 µM
GI50 (MDA-MB-435): 11 µM
TGI (MDA-MB-435): 24.6 µM
GI50 (MDA-MB-468 breast): 1.81 µM
TGI (MDA-MB-468 breast): 7.67 µM
GI50 (MOLT-4 leukemia): 4.43 µM
TGI (MOLT-4 leukemia): 19 µM
GI50 (NCI-H226 lung): 10.1 µM
